One series addresses T1, RAF-1 (Homo sapiens, UniProt P04049).
T1 construct: made in house; host or cells: Sf9 (Spodoptera frugiperda) cells co-infected with RAS and RAF recombinant baculoviruses
Put plainly: RAF-1 ELISA phosphorylation assay (RAF-catalyzed phosphorylation of MEK and MAPK). The format is biochemical. As to conditions: RAF-1 phosphorylation assay, lysates from RAS/RAF infected Sf9 cells, substrates T-MEK and His-MAPK. From the text:
The following assay reports the amount of RAF-catalyzed phosphorylation of its target protein MEK as well as MEK's target MAPK. The RAF gene sequence is described in Bonner et al., 1985, Molec. Cell. Biol. 5: 1400-1407, and is readily accessible in multiple gene sequence data banks. Construction of the nucleic acid vector and cell lines utilized for this portion of the invention are fully described in Morrison et al., 1988, Proc. Natl. Acad. Sci. USA 85: 8855-8859.
• 1. Sf9 (Spodoptera frugiperda) cells; GIBCO-BRL, Gaithersburg, Md. • 2. RIPA buffer: 20 mM Tris/HCl pH 7.4, 137 mM NaCl, 10% glycerol, 1 mM PMSF, 5 mg/L Aprotenin, 0.5% Triton X-100; • 3. Thioredoxin-MEK fusion protein (T-MEK): T-MEK expression and purification by affinity chromatography were performed according to the manufacturer's procedures. Catalog#K 350-01 and R 350-40, Invitrogen Corp., San Diego, Calif. • 4. His-MAPK (ERK 2); His-tagged MAPK was expressed in XL1 Blue cells transformed with pUC18 vector encoding His-MAPK. His-MAPK was purified by Ni-affinity chromatography. Cat#27-4949-01, Pharmacia, Alameda, Calif., as described herein. • 5. Sheep anti mouse IgG: Jackson laboratories, West Grove, Pa. Catalog, #515-006-008, Lot#28563 • 6. RAF-1 protein kinase specific antibody: URP2653 from UBI. • 7. Coating buffer: PBS; phosphate buffered saline, GIBCO-BRL, Gaithersburg, Md. • 8. Wash buffer: TBST-50 mM Tris/HCL pH 7.2, 150 mM NaCl, 0.1% Triton X-100 • 9. Block buffer: TBST, 0.1% ethanolamine pH 7.4 • 10. DMSO, Sigma, St. Louis, Mo. • 11. Kinase buffer (KB): 20 mM Hepes/HC1 pH 7.2, 150 mM NaCl, 0.1% Triton X-100, 1 mM PMSF, 5 mg/L Aprotenin, 75 μM sodium ortho vanadate, 0.5 MM DTT and 10 mM MgCl2. • 12. ATP mix: 100 mM MgCl2, 300 μM ATP, 10 μCi γ-^33P ATP (Dupont-NEN)/mL. • 13 Stop solution: 1% phosphoric acid; Fisher, Pittsburgh, Pa. • 14. Wallac Cellulose Phosphate Filter mats; Wallac, Turku, Finnland. • 15. Filter wash solution: 1% phosphoric acid, Fisher, Pittsburgh, Pa. • 16. Tomtec plate harvester, Wallac, Turku, Finnland. • 17. Wallac beta plate reader #1205, Wallac, Turku, Finnland. • 18. NUNC 96-well V bottom polypropylene plates for compounds Applied Scientific Catalog #AS-72092. Procedure
All of the following steps were conducted at room temperature unless specifically indicated. • 1. ELISA plate coating: ELISA wells are coated with 100 μL of Sheep anti mouse affinity purified antiserum (1 μg/100 μL coating buffer) over night at 4° C. ELISA plates can be used for two weeks when stored at 4° C. • 2. Invert the plate and remove liquid. Add 100 μL of blocking solution and incubate for 30 min. • 3. Remove blocking solution and wash four times with wash buffer. Pat the plate on a paper towel to remove excess liquid. • 4. Add 1 μg of antibody specific for RAF-1 to each well and incubate for 1 hour. Wash as described in step 3. • 5. Thaw lysates from RAS/RAF infected Sf9 cells and dilute with TBST to 10 μg/100 μL. Add 10 μg of diluted lysate to the wells and incubate for 1 hour. Shake the plate during incubation. Negative controls receive no lysate. Lysates from RAS/RAF infected Sf9 insect cells are prepared after cells are infected with recombinant baculoviruses at a MOI of 5 for each virus, and harvested 48 hours later. The cells are washed once with PBS and lysed in RIPA buffer. Insoluble material is removed by centrifugation (5 min at 10,000×g). Aliquots of lysates are frozen in dry ice/ethanol and stored at −80° C. until use. • 6. Remove non-bound material and wash as outlined above (step 3). • 7. Add 2 μg of T-MEK and 2 μg of His-MAEPK per well and adjust the volume to 40 μL with kinase buffer. Methods for purifying T-MEK and MAPK from cell extracts are provided herein by example. • 8. Predilute compounds (stock solution 10 mg/mL DMSO) or extracts 20 fold in TBST plus 1% DMSO. Add 5 μL of the prediluted compounds/extracts to the wells described in step 6. Incubate for 20 min. Controls receive no drug. • 9. […]
(In general: An ELISA detects its analyte on a solid surface through an enzyme-linked reagent.)

SMILES strings stand for the structures. “And” between values parts separate entries of the source, which are not always exact repeats. Equal values may be shown once. Where only a bound is given, the exact number is not on record here.

T1 sequence (P04049 whole entry): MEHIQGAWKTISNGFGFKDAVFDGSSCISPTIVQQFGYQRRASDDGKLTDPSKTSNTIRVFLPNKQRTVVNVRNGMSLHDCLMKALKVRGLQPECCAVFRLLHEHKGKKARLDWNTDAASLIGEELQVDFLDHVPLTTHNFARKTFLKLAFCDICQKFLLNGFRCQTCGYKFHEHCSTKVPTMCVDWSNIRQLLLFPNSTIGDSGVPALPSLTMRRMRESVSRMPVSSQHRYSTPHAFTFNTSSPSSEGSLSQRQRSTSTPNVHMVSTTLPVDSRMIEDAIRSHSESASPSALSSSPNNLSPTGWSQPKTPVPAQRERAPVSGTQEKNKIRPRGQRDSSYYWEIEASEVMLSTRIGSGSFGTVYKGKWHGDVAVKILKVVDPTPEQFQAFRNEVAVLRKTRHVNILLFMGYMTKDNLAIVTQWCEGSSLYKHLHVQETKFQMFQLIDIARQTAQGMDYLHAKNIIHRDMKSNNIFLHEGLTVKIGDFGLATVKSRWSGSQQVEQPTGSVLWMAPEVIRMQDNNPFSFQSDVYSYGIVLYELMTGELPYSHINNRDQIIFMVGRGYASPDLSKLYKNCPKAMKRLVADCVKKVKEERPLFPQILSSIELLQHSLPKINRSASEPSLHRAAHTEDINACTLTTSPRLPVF

With `Nc1nc(N)c2c(Sc3ccc(Cl)cc3)cccc2n1` [Compound A-5, 2,4-Diamino-5-(4-chlorophenylthio)quinazoline], the IC50 (commonly the point on the concentration scale where inhibition reaches its midpoint) at RAF-1 is over 100 µM. For `Nc1ncnc2cccc(Oc3ccc(F)cc3)c12` [Compound A-13, 4-Amino-5-(4-fluorophenoxy)quinazoline], the melting point (in general, the temperature, or range, at which the solid turns liquid) lay in the range of 188 to 190 °C. Half-maximal inhibition on RAF-1 (IC50) was put at 0.1 µM. In turn, `Cc1ccc(Sc2cccc3nc(N)nc(N)c23)cc1` [Compound A-4, 2,4-Diamino-5-(4-methylphenylthio)quinazoline] yielded an IC50 at RAF-1 of over 100 µM. On the same count and under the same terms, the same measure for `COc1ccc(Oc2cccc3ncnc(N)c23)cc1` [Compound A-15, 4-Amino-5-(4-methoxyphenoxy)quinazoline]: 0.8 µM; for `Nc1ncnc2cccc(Sc3ccccc3)c12` [Compound A-3, 4-Amino-5-phenylthioquinazoline]: 25.6 µM.

With `CN(C)c1cccc(Oc2cccc3nc(N)nc(N)c23)c1` [Compound A-14, 2,4-Diamino-5-(3-dimethylaminophenoxy)quinazoline], on RAF-1, the IC50 is 24.6 µM and 57 µM.

`Nc1nc(N)c2c(Oc3cccc(C(F)(F)F)c3)cccc2n1` [Compound A-11, 2,4-Diamino-5-(3-trifluoromethylphenoxy)quinazoline] displayed a half-inhibitory concentration (IC50) on RAF-1 of over 100 µM. As for `Nc1nc(N)c2c(Nc3ccccc3)cccc2n1` [Compound A-35, 2,4-Diamino-5-anilinoquinazoline], the melting point is 279 to 283 °C (dec.). Turning to `Nc1nc(-c2ccccc2)nc2cccc(Oc3ccccc3)c12` [Compound A-12, 4-Amino-2-phenyl-5-phenoxyquinazoline], the melting point is 190 to 191 °C. The compound further displayed an IC50 against RAF-1 of over 100 µM.
